For 1 compound, Km results are on record in publication PMC3492160, “Identification of white campion (Silene latifolia) guaiacol O-methyltransferase involved in the biosynthesis of veratrole, a key volatile for pollinator attraction” (BMC Plant Biology, 2012).

Assay [1] relates to T1, SlGOMT1.
T1 construct: no tag removal described
The assay is described as follows: radiometric methylation assay with […]-SAM, ethyl acetate extraction, double reciprocal plot. It counts as biochemical, Silene latifolia. The following applies: SAM 200 μM constant; 5 mM MgCl2; Tris-HCl pH 7.5; room temperature; apparent Km.

The test system of assay [2] is T2, SlGOMT2.
T2 construct: no tag removal described
Described as above. The following applies: SAM 200 μM constant; 5 mM MgCl2; Tris-HCl pH 7.5; room temperature; apparent Km. It counts as biochemical, Silene latifolia.

One may read the Km as the substrate concentration at which the rate is half of its maximum. Regarding `COc1ccccc1O` [guaiacol], the Km in assay [1] was 9.79 ± 1.51 µM; in assay [2] it was 501 ± 198 µM.
